In publication PMC12040169 (PLOS Biology, 2025):

Assay: in vitro
Settings: human, hela cells, % viability

Compound	viability at 28.5 h, 10 µM
COc1cc([C@@H]2c3cc4c(cc3[C@H](O)[C@H]3COC(=O)[C@@H]23)OCO4)cc(OC)c1OC [CBK051004]	36.3%
CCc1ccccc1OCC(=O)Nc1ccc([N+](=O)[O-])cc1OC [CBK265665]	97.1%
CC1CC(/N=C2/NCCS2)CC(C)(C)C1 (centres unmarked) [CBK020293]	102%
Cc1c(C(=O)NC(Cc2ccsc2)c2cccnc2)cnn1C (centres unmarked) [CBK285115]	110%
COc1ccc(CCN2CCN(c3nccnc3OCC3COc4ccccc4O3)CC2)cc1OC (centres unmarked) [CBK082808T]	104%
Cc1cnc(CNC(=O)c2cnoc2-c2ccccc2)cn1 [CBK154926]	98%
NCC1CCCN1C(=O)c1ccc(Oc2cccc(Br)c2)nc1 (centres unmarked) [CBK304200]	95.5%
COc1ccc2c(c1)CCN(C(=O)C1CCc3nn(C)c(=O)n3C1)C2 (centres unmarked) [CBK307613]	93.3%
Clc1ccc(Cl)c(-c2ccc(CNCCCN3CCOCC3)o2)c1 [CBK278190C]	89.3%
O=C(O)c1ccccc1NS(=O)(=O)Cc1ccccc1[N+](=O)[O-] [CBK042373]	91.9%
Cc1cc(C)cc(OCC(=O)Nc2ccc3[nH]c(=O)[nH]c3c2)c1 [CBK269676]	99.5%
COC(=O)c1ccccc1NC(=O)Cn1cncc1-c1ccc([N+](=O)[O-])cc1 [CBK266741]	91.9%
CCc1cc2cc3c(cc2nc1SCC(=O)Nc1nc(C)c(C)s1)OCO3 [CBK108548]	94.8%
Nc1ncc(-c2ccc(OC(F)(F)F)cc2)c2cccnc12 [CBK067594]	98.7%
CC(N)C1CCCCN1S(=O)(=O)c1ccc(OCc2ncnn2C)cc1 (centres unmarked) [CBK304272C]	94.3%
Cc1ccccc1C(=O)Nc1cccc(NC(=O)c2ccc(-c3cc4ccccc4oc3=O)cc2)c1 [CBK267256]	118%
CCOC(=O)c1cnn(C2CCCN(Cc3cccc(O)c3)C2)c1 (centres unmarked) [CBK304046]	100%
COc1cc(-c2cncc(N3CCC(C(=O)O)CC3)n2)cc(OC)c1OC [CBK037973]	100%
CCC1(CC)C(=O)N=C(C(C)(C)C)NC1=O [CBK076759]	88.8%
CC(C)Oc1cccc(CNC(=O)c2ccc(C(C)(C)C)[nH]c2=O)c1 [CBK281415]	92.2%
CCOc1ccc(CN2CCN(CC(=O)Nc3cc(C)on3)CC2)cc1 [CBK306116]	115%

Compound	viability at 28.5 h, 10 µM
O=C1c2ccccc2C(=O)c2c1cccc2S(=O)(=O)N1CCN(C(=O)C2CCCO2)CC1 (centres unmarked) [CBK200038]	40.5%
OC(CN1CCN(c2ccc(C(F)(F)F)cn2)CC1)c1ccc2c(c1)OCCO2 (centres unmarked) [CBK074707]	104%
Cc1cnc2c(Cl)c(C(=O)N3CCN(C)C4(CCNCC4)C3)nn2c1 [CBK306513]	92.9%
CN1C[C@@H](C(=O)N(C)C)[C@@]2(CCc3ccccc3C(=O)N2)C1 [CBK284792]	102%
COc1ccc(Cn2nc(NC(=O)Nc3c(C)noc3C)c3ccccc32)cc1 [CBK048528]	88.9%
CN1CCN(NC(=O)c2cccc(COc3ccccc3Cl)c2)CC1 [CBK265765]	99.2%
O=C(COc1ccc(Cl)cc1Br)NNC(=O)c1ccccc1O [CBK262943]	97.8%
Cc1nc(COc2ccc(Cl)cc2)sc1C(=O)N1CCCCC1C(=O)O (centres unmarked) [CBK304233]	87.9%
Cc1cccn2c(=O)cc(CN3CCc4nn(C)c(=O)cc4C3)nc12 [CBK305514]	98.2%
Cc1ccc(S(=O)(=O)Nc2ccc3c(ccn3CCOC3CCN(C(=O)OC(C)(C)C)CC3)c2)cc1Cl [CBK172991]	99%
COc1ccc(-n2c(=O)[nH]cc(C(=O)Nc3cc(C)ccc3OC)c2=O)cc1 [CBK287548]	107%
CC(NC(=O)COc1ccc(Br)cc1)C(=O)O (centres unmarked) [CBK262083]	87.4%
O=C1NC(=O)C(CCCCN2CCC3(CCN(C(=O)c4cc(F)c(F)cc4F)C3)C2)N1 (centres unmarked) [CBK132147]	84.8%
c1ccc(-c2oc3ncn4nc(COc5cccc6ccccc56)nc4c3c2-c2ccccc2)cc1 [CBK262898]	99.9%
CN(C)CCNC1CS(=O)(=O)CC1O (centres unmarked) [CBK059025]	84.8%
CC(=O)c1ccc(NC(=O)N(C)c2c(C)nc3ccc(C(=O)N4CCN(C(=O)c5ccco5)CC4)cn23)cc1 [CBK146930]	92.8%
CCOC(=O)c1sc2nc(N3CCOCC3)c3c(c2c1N)CCCC3 [CBK131870]	100%
COc1ccc(I)cc1S(=O)(=O)NCc1ccccn1 [CBK264019]	91.3%
Clc1ccc(COc2nccnc2OCC2CCCO2)cc1Cl (centres unmarked) [CBK161587]	105%
O=C(Cc1ccccc1Oc1ccccc1)Nc1cnc(-c2ccc(F)cc2)c(-c2ccco2)n1 [CBK037194]	92.6%
COC(=O)c1c(NC(=S)Nc2ccc(Br)cn2)sc2c1CCC(C)C2 (centres unmarked) [CBK266962]	94.6%

Compound	viability at 28.5 h, 10 µM
CN1CCN(C(=O)CN(CC(=O)N2CCN(C)CC2)S(=O)(=O)c2ccc(Cl)cc2)CC1 [CBK269627]	96.6%
O=C(CC1CCN(Cc2cccc(C(F)(F)F)c2)CC1)NCc1ccc2[nH]c(=O)[nH]c2c1 [CBK285954]	97.8%
O=C(c1cccnc1)C1CCN(C(=O)Cc2ccccc2F)CC1 [CBK283814]	87.5%
COc1ccc2cc([C@@H](O)C[C@@H](C)O)c(Cl)nc2c1 [CBK022146]	104%
CCc1nccn1CCC(=O)N1CC(OCc2ccccc2F)C1 [CBK306597]	88.5%
Cc1ccccc1-n1ccn(S(=O)(=O)c2ccccc2)c1=O [CBK106567]	86.7%
CCC(CN1CCCC1)NC(=O)C1(c2ccccc2)CCOCC1 (centres unmarked) [CBK282758]	96.6%
Cc1ccc(CNCc2cc3c(C)nn(-c4ccccc4)c3[nH]c2=O)o1 [CBK282896]	90.8%
O=C(c1cccnc1)N1CCN(S(=O)(=O)c2ccc([N+](=O)[O-])cc2)CC1 [CBK264300]	92.5%
C/C(=N/O)c1ccc(OCCCOc2ccc(/C(C)=N/O)cc2)cc1 [CBK262075]	95.2%
CC(=O)Nc1ccc(NC(=O)CC2(CC(=O)O)CCCC2)cc1 [CBK296931]	97.3%
Cc1cc([N+](=O)[O-])nn1CCCC(=O)Nc1cccc(O)c1 [CBK268747]	87.1%
Cc1cc(C)n(C(C)CNC(=O)C(C)n2ccnc2)n1 (centres unmarked) [CBK282049]	109%
Cc1nc2c(C(=O)NCCOCCO)cnn2c(C)c1Cc1cccc(OC(F)(F)F)c1 [CBK167454]	114%
CCOC(=O)C1(Cc2cc(-c3ccc(F)cc3)no2)CCNCC1 [CBK284581]	109%
COCCN1CCCC(NS(=O)(=O)c2cccc(C(C)=O)c2)C1 (centres unmarked) [CBK305290]	94.7%
Cc1cccc(-c2ccc(CC3(C(N)=O)CCN(C(=O)c4ccccc4)CC3)cc2)c1 [CBK285778]	93.9%
Cc1ccc(C(=O)CC(C(=O)O)c2cn(CCC#N)c3ccccc23)cc1 (centres unmarked) [CBK287194]	85.8%
CCN1C(=O)c2[nH]nc(-c3ccccc3O)c2C1c1cccc(O)c1 (centres unmarked) [CBK288159]	95.9%
Cc1cccc(Nc2ncnc3ccccc23)c1 [CBK072827]	114%
